Measured values published in US20040019430A1, “Methods and systems for analyzing complex biological systems” (priority 2001, published 2004).

Assays:
[1] = system: Saccharomyces cerevisiae wild type strain BY4743; assay: AF1 combined gene expression and metabolite data mapped to KEGG reactions and pathways; format: cell-based; conditions: yeast AF1
Description: In AF1, two different technologies were utilized: gene expression analysis (for examination of mRNA expression) and metabolite analysis. […] As noted previously, existing metabolic databases may be helpful in practicing the methods and systems of the present invention, but many databases include limitations that make their use in data analysis and pathway mapping less than straightforward. […] This caveat to KEGG makes it difficult to pinpoint the correct pathway when attempting to link a gene to a specific pathway. […] The pathway score indicates how meaningful the mapping is, or how likely it is to be correctly indicative of the pathway involved in the perturbation under examination. The method provides a pathway score based on perturbation levels of genes and/or compounds and the information content of each gene and/or compound in the pathway, i.e., a pathway score indicates the extent to which other pathways are mapped to a gene/compound. For example, imagine that two genes are perturbed in a particular experiment. One gene maps to only one pathway, giving a high degree of probability that the perturbed pathway is the one identified in the mapping. The second gene maps to three pathways. In the later example, there is only one-third the probability that the pathway identified in the mapping is the one perturbed. The present invention provides a method for calculating the pathway scores, so that more weight is given to a score of a gene or compound that maps to only one pathway than to a score of a gene or compound that maps to multiple pathways. […] Where n=the total number of genes in the pathway; ipath—count=the number of pathways containing a gene; and j=the number of genes in the pathway that are perturbed. Another factor to be considered when weighting a pathway score is the degree of perturbation. Degree of perturbation can be calculated, for example, based on a number of standard deviations from a norm, and included in an equation such as the one shown above, so that not only the number of pathways is taken into account, but also accounts for the amount of gene transcript or compound present as compared to a control. Compounds were also linked to pathways using the KEGG database. KEGG links 676 compounds measured in AF1 to a total of 92 pathways. Of the 676 compounds under consideration, 77 were detected in the AF1 samples. […] The multiple mapping feature of KEGG makes it difficult to pinpoint the correct pathway when trying to link a compound to a specific pathway. […] A pathway score calculation is applied to the compounds to account for both information content (number of pathways a compound maps to) and perturbation level. The data were then combined to determine the number of reactions showing an enzyme and at least one compound perturbed, and to determine the number of pathways having at least one enzyme and one perturbed compound perturbed. The results of the analysis are represented in Tables 16 and 17, and were difficult to interpret, illustrating that the ability to draw conclusions from compound mapping to pathways is limited when absent additional data.

[2] = system: Saccharomyces cerevisiae wild type strain BY4743; assay: AF1 metabolite analysis (GC-MS, LC-MS) of yeast cells treated with antifungal drugs; format: cell-based; set-up: Fold Change: scale not given here; conditions: for # Compounds perturbed by treatment: yeast, 2x MIC, two hours

SMILES: C[C@@H]1[C@H](O)[C@@H](C)/C=C/C=C/C=C/C=C/C=C/C=C/C=C/[C@H](O[C@@H]2O[C@H](C)[C@@H](O)[C@H](N)[C@@H]2O)C[C@@H]2O[C@](O)(C[C@@H](O)C[C@@H](O)[C@H](O)CC[C@@H](O)C[C@@H](O)CC(=O)O[C@H]1C)C[C@H](O)[C@H]2C(=O)O [Amphoteracin B]
- # Reactions (title: Number Of Pathways Having at Least One Enzyme and One Compound Perturbed) [1]: 37
- # Reactions having an enzyme and at least one compound perturbed [1]: 54
- # Compounds perturbed by treatment ([2]; P < 0.05): 16
- # Compounds perturbed by treatment ([2]; P < 0.1): 21
- Fold Change ([2]; metabolite 3-indolylacetonitri, platform nLC): −0.9998
- Fold Change ([2]; metabolite 4-aminobenzoic acid, platform pLC): 0
- Fold Change ([2]; metabolite 4-methylcatechol, platform nLC): 0
- Fold Change ([2]; metabolite 4-methylcatechol, platform pLC): 0
- Fold Change ([2]; metabolite 4ambutyrate/dimglyc, platform pLC): 0.01279
- Fold Change ([2]; metabolite 4aminobutyrate/dimg, platform nLC): −0.1983
- Fold Change ([2]; metabolite DL-aminoadipic acid, platform pLC): 0.4703
- Fold Change ([2]; metabolite DLaminoadipic acid, platform nLC): 1.411
- Fold Change ([2]; metabolite NacetylD-glucosamine, platform nLC): 0
- Fold Change ([2]; metabolite NacetylD-glucosamine, platform pLC): 0
- Fold Change ([2]; metabolite NacetylL-glutamate, platform nLC): −0.1078
- Fold Change ([2]; metabolite NacetylL-glutamate, platform pLC): 0
- Fold Change ([2]; metabolite NacetylL-ornithine, platform nLC): 0
- Fold Change ([2]; metabolite NacetylL-ornithine, platform pLC): 1.319
- Fold Change ([2]; metabolite decanoic acid, platform nLC): −0.08716
- Fold Change ([2]; metabolite desmosterol, platform GC): 0
- Fold Change ([2]; metabolite diaminopimelic acid, platform nLC): 0
- Fold Change ([2]; metabolite diaminopimelic acid, platform pLC): 0
- Fold Change ([2]; metabolite dihydrofolic acid, platform nLC): 0
- Fold Change ([2]; metabolite dihydrofolic acid, platform pLC): 0
- Fold Change ([2]; metabolite dipicolinic acid, platform pLC): 0
- Fold Change ([2]; metabolite disaccaride1, platform GC): −1
- Fold Change ([2]; metabolite disaccaride2, platform GC): −0.9977
- Fold Change ([2]; metabolite disaccaride3, platform GC): −0.9977
- Fold Change ([2]; metabolite ergosterol, platform GC): 2.303
- Fold Change ([2]; metabolite estrone, platform nLC): 0
- Fold Change ([2]; metabolite farnesol, platform nLC): 0
- Fold Change ([2]; metabolite folic acid, platform nLC): 0
- Fold Change ([2]; metabolite folic acid, platform pLC): 0
- Fold Change ([2]; metabolite fucosterol, platform GC): −0.6553
- Fold Change ([2]; metabolite fumaric/3m2oxobutan, platform nLC): 0.4423
- Fold Change ([2]; metabolite gallic acid, platform nLC): 0.1622
- Fold Change ([2]; metabolite gibberellic, platform nLC): 0
- Fold Change ([2]; metabolite glucosamine-6PO4, platform nLC): −0.9951
- Fold Change ([2]; metabolite glucosamine-6PO4, platform pLC): 0
- Fold Change ([2]; metabolite glucosamine, platform pLC): 0
- Fold Change ([2]; metabolite glutamate, platform pLC): 0.4341
- Fold Change ([2]; metabolite glutamic/acetylseri, platform nLC): 0.1414
- Fold Change ([2]; metabolite glutamine/lysine, platform nLC): 0.07919
- Fold Change ([2]; metabolite glutamine/lysine, platform pLC): 0.3981
- Fold Change ([2]; metabolite glutamine, platform GC): −0.9116
- Fold Change ([2]; metabolite glutathione, platform pLC): −0.03348
- Fold Change ([2]; metabolite glycanopyrose, platform GC): −0.958
- Fold Change ([2]; metabolite glycerol, platform GC): −0.815
- Fold Change ([2]; metabolite glycine, platform GC): 0.8807
- Fold Change ([2]; metabolite guanine, platform nLC): 0
- Fold Change ([2]; metabolite guanosine, platform nLC): 1.131
- Fold Change ([2]; metabolite guanosine, platform pLC): 0.7598
- Fold Change ([2]; metabolite hexadecanoic acid, platform GC): −0.2427
- Fold Change ([2]; metabolite histidine, platform nLC): 0
- Fold Change ([2]; metabolite histidine, platform pLC): 0
- Fold Change ([2]; metabolite homogentisic/uric, platform nLC): 0
- Fold Change ([2]; metabolite hydrocortisone, platform nLC): 0
- Fold Change ([2]; metabolite hydrocortisone, platform pLC): 0
- Fold Change ([2]; metabolite hypoxanthine, platform nLC): 0.1655
- Fold Change ([2]; metabolite hypoxanthine, platform pLC): 0.2057
- Fold Change ([2]; metabolite indole3-pyruvic acid, platform nLC): 0
- Fold Change ([2]; metabolite inostol/glucos/sorb, platform nLC): −0.5905
- Fold Change ([2]; metabolite iso citric acid, platform GC): −0.6183
- Fold Change ([2]; metabolite isocitric/citric/qu, platform nLC): 2.549
- Fold Change ([2]; metabolite isoleucine, platform GC): −0.9533
- Fold Change ([2]; metabolite itaconic acid dimes, platform pLC): 0
- Fold Change ([2]; metabolite jasmonic acid, platform nLC): 0
- Fold Change ([2]; metabolite kinetin, platform nLC): 0
- Fold Change ([2]; metabolite kinetin, platform pLC): 0
- Fold Change ([2]; metabolite lactic acid, platform nLC): −0.02583
- Fold Change ([2]; metabolite lanosterol, platform GC): −1
- Fold Change ([2]; metabolite lauric acid, platform nLC): 0.1225
- Fold Change ([2]; metabolite leucine/isoleucine/, platform nLC): 0.1319
- Fold Change ([2]; metabolite leucine/isoleucine/, platform pLC): 0.2746
- Fold Change ([2]; metabolite leucine, platform GC): −0.9443
- Fold Change ([2]; metabolite luteolin, platform nLC): 0
- Fold Change ([2]; metabolite luteolin, platform pLC): 0
- Fold Change ([2]; metabolite lysine, platform GC): −0.3925
- Fold Change ([2]; metabolite malic acid, platform GC): −0.963
- Fold Change ([2]; metabolite malic acid, platform nLC): 0.6212
- Fold Change ([2]; metabolite malonic acid, platform nLC): 0
- Fold Change ([2]; metabolite mannitol, platform pLC): 0.4543
- Fold Change ([2]; metabolite menthol*, platform nLC): −0.07013
- Fold Change ([2]; metabolite methionine, platform nLC): 0
- Fold Change ([2]; metabolite methionine, platform pLC): 0.3299
- Fold Change ([2]; metabolite mevalonic acid lactone, platform GC): −0.1276
- Fold Change ([2]; metabolite mevalonic lactone, platform pLC): −0.4606
- Fold Change ([2]; metabolite niacinamide, platform pLC): 0
- Fold Change ([2]; metabolite nicotinic acid, platform nLC): 0.3131
- Fold Change ([2]; metabolite nicotinic acid, platform pLC): −0.9989
- Fold Change ([2]; metabolite nopaline, platform nLC): 0.3342
- Fold Change ([2]; metabolite nopaline, platform pLC): 0
- Fold Change ([2]; metabolite octadecanoic acid, platform GC): 0.21
- Fold Change ([2]; metabolite oleic acid, platform GC): −0.4593
- Fold Change ([2]; metabolite oleic acid, platform nLC): 0.689
- Fold Change ([2]; metabolite ornithine2, platform GC): −1
- Fold Change ([2]; metabolite ornithine3, platform GC): −0.9853
- Fold Change ([2]; metabolite ornithine, platform nLC): 2.534
- Fold Change ([2]; metabolite ornithine, platform pLC): 0.5049
- Fold Change ([2]; metabolite orotic acid, platform nLC): 8380
- Fold Change ([2]; metabolite palmiteliadic acid, platform GC): 0.515
- Fold Change ([2]; metabolite palmitic acid, platform nLC): 0.3979
- Fold Change ([2]; metabolite phenylalanine, platform GC): −0.9797
- Fold Change ([2]; metabolite phenylalanine, platform nLC): −0.1906
